Assays:
hTRβ = molecular target: T1, hTRβ (Homo sapiens, UniProt P10828); assay: TR competition binding assay with filter separation; conditions: competition with 125I-T3 tracer, full length hTRβ; read-out: TR-β IC50
T1 sequence (P10828 1-461): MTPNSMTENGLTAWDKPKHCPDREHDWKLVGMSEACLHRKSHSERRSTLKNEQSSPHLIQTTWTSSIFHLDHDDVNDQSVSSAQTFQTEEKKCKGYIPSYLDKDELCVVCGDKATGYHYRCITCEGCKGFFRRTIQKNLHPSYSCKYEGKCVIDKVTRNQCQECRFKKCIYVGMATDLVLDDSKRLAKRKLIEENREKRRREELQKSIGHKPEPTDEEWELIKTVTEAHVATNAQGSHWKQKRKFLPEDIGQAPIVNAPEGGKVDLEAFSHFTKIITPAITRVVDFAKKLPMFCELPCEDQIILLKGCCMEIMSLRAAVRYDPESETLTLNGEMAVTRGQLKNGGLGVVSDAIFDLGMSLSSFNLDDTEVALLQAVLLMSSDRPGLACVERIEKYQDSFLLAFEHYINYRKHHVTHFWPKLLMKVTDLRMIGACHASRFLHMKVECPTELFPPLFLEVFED
Protocol: TR Competition Binding Assay with Filter Separation
Compounds are tested for their ability to compete with the tracer ^125I-T3 for binding to full length hTRα and hTRβ. Receptor extracts and tracer are diluted in assay buffer (17 mM K2HPO4, 3 mM KH2PO4, 400 mM KCl, 1 mM MgCl2, 0.5 mM EDTA and 8.7% glycerol). ^125I-T3 is diluted to a final concentration of 0.2 nM and receptor is diluted to reach a final count in Trilux Microbeta of approximately 10000 ccpm. Compounds are typically serially diluted in DMSO from DMSO stock solutions of 10 mM. To 96 well microtiter plates are 100 μl tracer, 4 μl test compound dilution series and 100 μl receptor dilution added. The assay plates are incubated at +4° C. overnight (app. 16 h incubation). Receptor bound and free tracer are separated over a glass fiber filter (FILTERMAT B, PerkinElmer) on a Tomtec Cellharvester with 18 mM K2HPO4, 2 mM KH2PO4, 0.5 mM EDTA wash buffer. The filters are dried at 60° C. for 1 h and then merged with a scintillant wax (MELTILEX, PerkinElmer) on a Wallac Microsealer before measuring in a Trilux Microbeta. IC50s, the concentration test compound needed to decrease tracer binding by 50 percent, are generated via analysis of data in XLfit version 2.0 or later with a four parameter logistic model.

CHO/hThRβ1 = molecular target: T2, CHO/hThRβ1 (Homo sapiens, UniProt P10828); assay: Reporter cell line (TRAF) assay, agonist activity; format: cell-based; conditions: CHO/hThRβ1 reporter cells, alkaline phosphatase readout after 48 hours
T2 construct: The cDNAs encoding the full length human ThRα1 and ThRβ1 were cloned; expressed in transfected cells
T2 sequence (P10828 1-461): T1 sequence (P10828 1-461)
Text: Vector Constructs, Generation of Reporter Cell Lines (TRAF), and Assay Procedure.
The cDNAs encoding the full length human ThRα1 and ThRβ1 were cloned in the mammalian expression vector pMT-hGH. The pDR4-ALP reporter vector contains one copy of the direct repeat sequence AGGTCA nnnnAGGTCA, fused upstream of the core promoter sequences of the mouse mammary tumor virus long terminal repeat (MMTV), replacing the glucocorticoid response elements. The DR4-MMTV promoter fragment was then cloned in the 5′ end of the cDNA encoding human placental alkaline phosphatase (ALP), followed in the 3′-end by the polyA-signal sequence of the human growth hormone gene. Chinese hamster ovary (CHO) K1 cells (ATCC No. CCL 61) were transfected in two steps, first with the receptor expression vectors pMT-hThRα1 and pMT-THRβ1, respectively, and the drug resistance vector pSV2-Neo, and in the second step, with the reporter vector pDR4-ALP and the drug resistance vector pKSV-Hyg. Individual drug resistant clones were isolated and selected based on T3 inducibility. One stable reporter cell clone each of CHO/hThRα1 and CHO/hThRβ1 were chosen for further study in response to various thyroid hormone agonists.
CHO/hThRα1 and CHO/hThRβ1 were seeded in growth medium (Coon's/F12, 10% L-3,5,3′-triiodothyronine and L-thyroxine depleted FCS, 2 mM L-glutamine) in 96-well plates at 20×10^3 cells per well. After 24 hour incubation at 37° C. in humidified chambers, at 5% CO2, conditioned medium was replaced by induction medium (OptiMEM, 2 mM L-glutamine, 50 μm/mL gentamycin) and cells were exposed to the test compounds at serial dilutions, at final DMSO concentration of 0.5% , or to serial dilution of T3 (positive control), to assess agonist activity of test compounds.
After 48 hours incubation at 37° C. in humidified chambers at 5% CO2 the level of alkaline phosphatase expressed and secreted into the cell culture medium was analyzed by chemiluminescence on MicroBeta Trilux.
The assay procedure described above was carried out for the compounds of Examples 1 to 40, 43-44 and 47-48.

| SMILES | IC50 (hTRβ) | β % agonism (CHO/hThRβ1) |
| --- | --- | --- |
| CCCc1nc2cc(Oc3c(Br)cc(OCC(=O)O)cc3Br)ccc2[nH]1 [Example 17] | 7.5 nM | 70% |
| Cc1nc(-c2nc3cc(Oc4c(Br)cc(CC(F)C(=O)O)cc4Br)ccc3[nH]2)c(C)o1 (stereo not drawn) [Example 32, 3-{3,5-Dibromo-4-[2-(2,5-dimethyl-oxazol4-yl)-1H-benzoimidazol-5-yloxy]-phenyl}-2-fluoropropionic acid] | 0.49 nM | 75% |
| Cc1cccc(-c2nc3cc(Oc4c(Br)cc(CCC(=O)O)cc4Br)ccc3[nH]2)c1 [Example 11, 3-(3,5-dibromo-4-{[2-(3-methylphenyl)-1H-benzimidazol-5-yl]oxy}phenyl)propanoic acid] | 2.4 nM | 99% |
| O=C(O)CCCc1cc(Br)c(Oc2ccc3[nH]c(-c4ccc(F)cc4)nc3c2)c(Br)c1 [Example 5, 4-(3,5-dibromo-4-{[2-(4-fluorophenyl)-1H-benzimidazol-5-yl]oxy}phenyl)butanoic acid] | 5.5 nM | 91% |
| CC(C)(C)Cc1nc2cc(Oc3c(Br)cc(OCC(=O)O)cc3Br)ccc2[nH]1 [Example 15, {3,5-dibromo-4-{[2-(2,2-dimethylpropyl)-1H-benzimidazol-5-yl)oxy]phenoxy}acetic acid] | 1.7 nM | 70% |
| CC(C)Cc1nc2cc(Oc3c(Br)cc(CC(F)C(=O)O)cc3Br)ccc2[nH]1 (racemic) [Example 10, 3-(3,5-dibromo-4-{[2-isobutyl-1H-benzimidazol-5-yl]oxy}phenyl)-2-fluoropropanoic acid] | 0.14 nM | 100% |
